For 49 compounds, IC50 results are on record in patent US11649251B2, “Substituted inhibitors of menin-MLL and methods of use” (Kura Oncology, Inc., priority 2017, dated 2023).

For orientation: IC50 means the concentration needed to halve the response being measured. The low end stands for greater potency in that assay, the high end for weaker potency in that assay.

The test deals with T1, Menin MLL 4-43 (Homo sapiens, UniProt O00255).
T1 sequence (O00255 1-610): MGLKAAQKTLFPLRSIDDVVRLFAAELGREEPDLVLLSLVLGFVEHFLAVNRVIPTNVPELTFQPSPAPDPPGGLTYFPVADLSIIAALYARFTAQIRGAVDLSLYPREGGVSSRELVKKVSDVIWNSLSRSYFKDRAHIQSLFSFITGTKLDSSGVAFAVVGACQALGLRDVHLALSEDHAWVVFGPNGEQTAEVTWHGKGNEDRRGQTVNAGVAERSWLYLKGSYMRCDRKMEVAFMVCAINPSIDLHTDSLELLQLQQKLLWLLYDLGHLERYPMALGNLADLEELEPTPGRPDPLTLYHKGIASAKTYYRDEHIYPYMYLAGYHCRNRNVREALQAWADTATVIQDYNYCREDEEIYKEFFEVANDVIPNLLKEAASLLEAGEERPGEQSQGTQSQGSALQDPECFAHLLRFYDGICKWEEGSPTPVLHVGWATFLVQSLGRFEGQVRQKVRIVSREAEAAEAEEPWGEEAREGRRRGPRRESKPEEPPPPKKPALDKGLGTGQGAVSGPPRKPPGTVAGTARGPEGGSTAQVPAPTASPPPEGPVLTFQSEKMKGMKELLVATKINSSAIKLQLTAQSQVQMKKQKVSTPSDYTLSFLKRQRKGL
Put plainly: Fluorescence polarization (FP) competition assay of the menin-MLL interaction. Format: binding. The note with it: fluorescence polarization competition with fluorescein-labeled MLL peptide. The source says: This example illustrates an assay effective in monitoring the binding of MLL to menin. […] A fluorescein-labeled peptide containing the high affinity menin binding motif found in MLL was produced according to Yokoyama et al. (Cell, 2005, 123(2): 207-218), herein incorporated by reference in its entirety. Binding of the labeled peptide (1.7 kDa) to the much larger menin (˜67 kDa) is accompanied by a significant change in the rotational correlation time of the fluorophore, resulting in a substantial increase in the fluorescence polarization and fluorescence anisotropy (excitation at 500 nm, emission at 525 nm).
(In fluorescence polarisation assays a small probe gives low polarisation when free and higher when bound to something large.)

Regarding `CNc1nc(N2CC3CN(Cc4ccc(NC(C)=O)cc4)CC3C2)c2cc(CC(F)(F)F)sc2n1` (stereo not shown) [Compound 148], the IC50 was greater than 1000 nM.
To `CNc1nc(N2CC3CN(Cc4ccc5c(cc(C#N)n5CCN5CCN(S(C)(=O)=O)CC5)c4C)CC3C2)c2cc(CC(F)(F)F)sc2n1` (stereo not shown) [Compound 151] belongs greater than 1000 nM.
To `CNc1nc(N2CC3CN(Cc4ccc(C#N)cc4)CC3C2)c2cc(CC(F)(F)F)sc2n1` (stereo not shown) [Compound 146] belongs greater than 1000 nM; to `CNc1nc(N2CCC3CCN(Cc4ccccc4)C3C2)c2cc(CC(F)(F)F)sc2n1` (stereo not shown) [Compound 145], greater than 1000 nM; to `Cc1nc(N2CCC3(CCN(Cc4ccc5c(c4)[nH]c(=O)n5CCO)C3)C2)c2cc(CC(F)(F)F)sc2n1` (stereo not shown) [Compound 29], 250 to 1000 nM.
To `Cc1nc(N2CCC3(CCN(Cc4ccc5[nH]c(C#N)cc5c4C)C3)C2)c2cc(CC(F)(F)F)sc2n1` (stereo not shown) [Compound 41] belongs greater than 1000 nM.
`CNc1nc(N2CCC3(CCN(Cc4ccc5c(cc(C#N)n5C[C@H](C)N5CCN(S(=O)(=O)NC)CC5)c4C)C3)C2)c2cc(CC(F)(F)F)sc2n1` (stereo partly shown) [Compound 5] gave an IC50 of less than 50 nM.
The same measure for `Cc1c(CN2CC3CN(c4ncnc5sc(CC(F)(F)F)cc45)CC3C2)ccc2[nH]c(C#N)cc12` (stereo not shown) [Compound 150]: greater than 1000 nM.
For `CNc1nc(N2CCC3(CCN(Cc4ccc5c(cc(C#N)n5C[C@H](C)N5CCC(S(=O)(=O)NC)CC5)c4C)C3)C2)c2cc(CC(F)(F)F)sc2n1` (stereo partly shown) [Compound 68], the 50% inhibitory concentration (IC50) is less than 50 nM.
Take `Cc1nc(N2CC3CN(Cc4ccc5[nH]c(C#N)cc5c4C)CC3C2)c2cc(CC(F)(F)F)sc2n1` (stereo not shown) [Compound 149]: the IC50 is greater than 1000 nM.
Compound `CNc1nc(N2CC3CN(CCc4ccc5[nH]ccc5c4)CC3C2)c2cc(CC(F)(F)F)sc2n1` (stereo not shown) [Compound 139] showed a concentration for half-maximal inhibition (IC50) of 250 to 1000 nM.
The same measure for `CNc1nc(N2CC3CCN(Cc4ccccc4)CC3C2)c2cc(CC(F)(F)F)sc2n1` (stereo not shown) [Compound 156]: greater than 1000 nM; for `CNc1nc(N2CCC3CCN(Cc4ccc5[nH]c(C#N)cc5c4C)C3C2)c2cc(CC(F)(F)F)sc2n1` (stereo not shown) [Compound 143]: greater than 1000 nM; for `CNc1nc(N2CCC3(CCN(C[C@H]4CC[C@H](NS(C)(=O)=O)CC4)C3)C2)c2cc(CC(F)(F)F)sc2n1` (stereo partly shown) [Compound 14]: less than 50 nM.
`Cc1nc(N2CCC3(CCN(Cc4ccc5c(cc(C#N)n5C[C@@H]5CNC(=O)CO5)c4C)C3)C2)c2cc(CC(F)(F)F)sc2n1` (stereo partly shown) [Compound 21]: the IC50 was less than 50 nM.
In turn, `CNc1nc(N2CCC3(CCN(Cc4ccc(NS(=O)(=O)NC)cc4)C3)C2)c2cc(CC(F)(F)F)sc2n1` (stereo not shown) [Compound 96] had an IC50 greater than 1000 nM.
To `CNc1nc(N2CC3CCN(Cc4ccc5[nH]c(C#N)cc5c4C)CC3C2)c2cc(CC(F)(F)F)sc2n1` (stereo not shown) [Compound 157] belongs greater than 1000 nM; to `CNc1nc(N2CC3CCN(Cc4ccc5[nH]c(C#N)cc5c4C)C3C2)c2cc(CC(F)(F)F)sc2n1` (stereo not shown) [Compound 129], greater than 1000 nM; to `CNc1nc(N2CC3CN(CCc4ccccc4)CC3C2)c2cc(CC(F)(F)F)sc2n1` (stereo not shown) [Compound 128], greater than 1000 nM.
To `CNc1nc(N2CC3CCN(CCc4ccc5[nH]ccc5c4)CC3C2)c2cc(CC(F)(F)F)sc2n1` (stereo not shown) [Compound 159] belongs greater than 1000 nM.
As for `CNc1nc(N2CCC3(CCN(Cc4ccc5c(cc(C#N)n5CCN5CCC(S(C)(=O)=O)CC5)c4C)C3)C2)c2cc(CC(F)(F)F)sc2n1` (stereo not shown) [Compound 77], the IC50 is less than 50 nM.
Compound `Cc1nc(N2CCC3(CCN(Cc4ccc(NS(C)(=O)=O)cc4)C3)C2)c2cc(CC(F)(F)F)sc2n1` (stereo not shown) [Compound 25] registered an IC50 of 250 to 1000 nM.
To `CNc1nc(N2CCC3CN(CCc4ccccc4)CC3C2)c2cc(CC(F)(F)F)sc2n1` (stereo not shown) [Compound 154] belongs greater than 1000 nM; to `CCC(=O)NC12CC(Cn3c(C#N)cc4c(C)c(CN5CCC6(CCN(c7nc(C)nc8sc(CC(F)(F)F)cc78)C6)C5)ccc43)(C1)C2` (stereo not shown) [Compound 3, N-(3-((2-cyano-4-methyl-5-((7-(2-methyl-6-(2,2,2-trifluoroethyl)thieno[2,3-d]pyrimidin-4-yl)-2,7-diazaspiro[4.4]nonan-2-yl)methyl)-1H-indol-1-yl)methyl)bicyclo[1.1.1]pentan-1-yl)propionamide], 250 to 1000 nM.
The compound `CNc1nc(N2CCC3CN(Cc4ccccc4)CC3C2)c2cc(CC(F)(F)F)sc2n1` (stereo not shown) [Compound 152] registered an IC50 of 250 to 1000 nM.
In turn, `CNS(=O)(=O)N1CCN([C@@H](C)Cn2c(C#N)cc3c(C)c(CN4CCC5(CCN(c6ncnc7sc(CC(F)(F)F)cc67)C5)C4)ccc32)CC1` (stereo partly shown) [Compound 45] returned an IC50 of less than 50 nM.
`CNc1nc(N2CCC3(CCN(Cc4ccc5c(c4)[nH]c(=O)n5CCO)C3)C2)c2cc(CC(F)(F)F)sc2n1` (stereo not shown) [Compound 30] showed an IC50 of less than 50 nM.
The same measure for `Cc1nc(N2CCC3(CCN(Cc4ccc5c(cc(C#N)n5C[C@H](C)N5CCN(S(C)(=O)=O)CC5)c4C)C3)C2)c2cc(CC(F)(F)F)sc2n1` (stereo partly shown) [Compound 8]: 50 to 250 nM; for `CNc1nc(N2CC3CCN(Cc4ccc5[nH]c(=O)[nH]c5c4)C3C2)c2cc(CC(F)(F)F)sc2n1` (stereo not shown) [Compound 140]: greater than 1000 nM; for `CNS(=O)(=O)C1CCN([C@@H](C)Cn2c(C#N)cc3c(C)c(CN4CCC5(CCN(c6ncnc7sc(CC(F)(F)F)cc67)C5)C4)ccc32)CC1` (stereo partly shown) [Compound 70]: less than 50 nM.
For the compound `CNc1nc(N2CCC3(CCN(Cc4ccc5c(cc(C#N)n5C[C@H](C)N5CCC(S(C)(=O)=O)CC5)c4C)C3)C2)c2cc(CC(F)(F)F)sc2n1` (stereo partly shown) [Compound 75], the IC50 is less than 50 nM.
`Cc1c(CN2CCC3(CCN(c4ncnc5sc(CC(F)(F)F)cc45)C3)C2)ccc2c1cc(C#N)n2C[C@@H]1CNC(=O)OC1` (stereo partly shown) [Compound 44] yielded an IC50 of less than 50 nM.
In turn, `CNc1nc(N2CCC3CCN(Cc4ccc5[nH]c(=O)[nH]c5c4)C3C2)c2cc(CC(F)(F)F)sc2n1` (stereo not shown) [Compound 144] gave an IC50 greater than 1000 nM.
`CNc1nc(N2CCC3(CCN(Cc4ccc(NS(C)(=O)=O)cc4)C3)C2)c2cc(CC(F)(F)F)sc2n1` (stereo not shown) [Compound 26] came in with a concentration for half-maximal inhibition (IC50) of 50 to 250 nM.
`Cc1c(CN2CCC3(CCN(c4ncnc5sc(CC(F)(F)F)cc45)C3)C2)ccc2c1cc(C#N)n2C[C@H](C)N1CCN(S(C)(=O)=O)CC1` (stereo partly shown) [Compound 43] registered an IC50 of less than 50 nM.
Compound `CNc1nc(N2CCC3(CCN(Cc4ccc5[nH]c(C#N)cc5c4C)C3)C2)c2cc(CC(F)(F)F)sc2n1` (stereo not shown) [Compound 42] had an IC50 of 250 to 1000 nM.
To `CNS(=O)(=O)N1CCN([C@@H](C)Cn2c(C#N)cc3c(C)c(CN4CCC5(CCN(c6nc(C)nc7sc(CC(F)(F)F)cc67)C5)C4)ccc32)CC1` (stereo partly drawn) [Compound 1, 4-((2S)-1-(2-cyano-4-methyl-5-((7-(2-methyl-6-(2,2,2-trifluoroethyl)thieno[2,3-d]pyrimidin-4-yl)-2,7-diazaspiro[4.4]nonan-2-yl)methyl)-1H-indol-1-yl)propan-2-yl)-N-methylpiperazine-1-sulfonamide] belongs 50 to 250 nM; to `Cc1c(CN2CCC3(CCN(c4nc(N)nc5sc(CC(F)(F)F)cc45)C3)C2)ccc2[nH]c(C#N)cc12` (stereo not shown) [Compound 125], greater than 1000 nM; to `CNc1nc(N2CCC3(CCN(Cc4ccc5c(cc(C#N)n5C[C@@H]5CNC(=O)CO5)c4C)C3)C2)c2cc(CC(F)(F)F)sc2n1` (stereo partly shown) [Compound 22], less than 50 nM.
The same measure for `Cc1nc(N2CCC3(CCN(Cc4ccc5c(cc(C#N)n5C[C@H](C)N5CCN(S(C)(=O)=O)CC5)c4C)C3)C2)c2cc(CC(F)(F)F)sc2n1` (stereo partly shown) [Compound 17]: less than 50 nM; for `CNc1nc(N2CC3CCN(CCc4ccccc4)C3C2)c2cc(CC(F)(F)F)sc2n1` (stereo not shown) [Compound 142]: greater than 1000 nM.
Turning to `CNS(=O)(=O)C1CCN([C@@H](C)Cn2c(C#N)cc3c(C)c(CN4CCC5(CCN(c6nc(C)nc7sc(CC(F)(F)F)cc67)C5)C4)ccc32)CC1` (stereo partly shown) [Compound 69], the half-inhibitory concentration (IC50) is less than 50 nM.
`CNc1nc(N2CC3CCN(CCc4ccccc4)CC3C2)c2cc(CC(F)(F)F)sc2n1` (stereo not shown) [Compound 158] returned a half-inhibitory concentration (IC50) greater than 1000 nM.
The same measure for `CNc1nc(N2CC3CN(Cc4ccc(NS(C)(=O)=O)cc4)CC3C2)c2cc(CC(F)(F)F)sc2n1` (stereo not shown) [Compound 147]: greater than 1000 nM.
To `CCC(=O)NC12CC(Cn3c(C#N)cc4c(C)c(CN5CCC6(CCN(c7nc(NC)nc8sc(CC(F)(F)F)cc78)C6)C5)ccc43)(C1)C2` (stereo not shown) [Compound 11] belongs 50 to 250 nM; to `CNc1nc(N2CCC3(CCN(Cc4ccc5c(cc(C#N)n5C[C@H](C)N5CCN(S(C)(=O)=O)CC5)c4C)C3)C2)c2cc(CC(F)(F)F)sc2n1` (stereo partly shown) [Compound 9], 50 to 250 nM.
`CNc1nc(N2CC3CCN(Cc4ccccc4)C3C2)c2cc(CC(F)(F)F)sc2n1` (stereo not shown) [Compound 141] showed an IC50 greater than 1000 nM.
The same measure for `CNc1nc(N2CCC3(CCN(Cc4ccc5c(cc(C#N)n5CCN5CCN(S(=O)(=O)NC)CC5)c4C)C3)C2)c2cc(CC(F)(F)F)sc2n1` (stereo not shown) [Compound 46]: 50 to 250 nM; for `CNc1nc(N2CCC3CN(CCc4ccc5[nH]ccc5c4)CC3C2)c2cc(CC(F)(F)F)sc2n1` (stereo not shown) [Compound 155]: 250 to 1000 nM.
